Reference: ChEMBL document CHEMBL5543109, “Novel β-Hairpin Antimicrobial Peptide Containing the β-Turn Sequence of -NG- and the Tryptophan Zippers Facilitate Self-Assembly into Nanofibers, Exhibiting Excellent Antimicrobial Performance” (J Med Chem, 2024)
In brackets after ≈: the same amount, converted by molar mass.

Legend:
Staphylococcus aureus [1] = assay: Bactericidal activity against Staphylococcus aureus ATCC 25923 incubated for 18 hrs by broth microdilution method; format: functional
[2] = Self-assembly property of compound in water assessed as beta-sheet content; format: physicochemical
Erythrocyte = assay: Hemolytic activity in mouse erythrocytes assessed as concentration required to cause 10% hemolysis incubated for 1 hr; format: toxicity, cell-based
Klebsiella pneumoniae [3] = assay: Bactericidal activity against Klebsiella pneumoniae ATCC 700603 incubated for 18 hrs by broth microdilution method; format: functional
Staphylococcus aureus [4] = assay: Antibacterial activity against Staphylococcus aureus at 2 times MIC preincubated for 1 hr with trypsin followed by enzyme inactivation and bacterial addition and measured after 18 hrs; format: functional; conditions: time 19 hrs
Pseudomonas aeruginosa [5] = assay: Bactericidal activity against Pseudomonas aeruginosa ATCC 27853 incubated for 18 hrs by broth microdilution method; format: functional
[6] = Retention time of the compound; format: physicochemical
Staphylococcus aureus [7] = assay: Antibacterial activity against Staphylococcus aureus at 2 times MIC preincubated for 1 hr with chymotrypsin followed by enzyme inactivation and bacterial addition and measured after 18 hrs; format: functional; conditions: time 19 hrs
[8] = test system: Staphylococcus epidermidis; assay: Bactericidal activity against Staphylococcus epidermidis ATCC 12228 incubated for 18 hrs by broth microdilution method; format: functional
Escherichia coli [9] = assay: Antibacterial activity against Escherichia coli ATCC 25922 incubated for 18 hrs by broth microdilution method; format: functional
[10] = Self-assembly property of compound in 50% TFE assessed as beta-sheet content; format: physicochemical
Staphylococcus aureus [11] = assay: Antibacterial activity against Staphylococcus aureus ATCC 25923 incubated for 18 hrs by broth microdilution method; format: functional
Pseudomonas aeruginosa [12] = assay: Antibacterial activity against Pseudomonas aeruginosa ATCC 27853 incubated for 18 hrs by broth microdilution method; format: functional
[13] = test system: Staphylococcus epidermidis; assay: Antibacterial activity against Staphylococcus epidermidis ATCC 12228 incubated for 18 hrs by broth microdilution method; format: functional
[14] = Self-assembly property of compound in PBS assessed as beta-sheet content; format: physicochemical; conditions: buffer
Escherichia coli [15] = assay: Bactericidal activity against Escherichia coli ATCC 25922 incubated for 18 hrs by broth microdilution method; format: functional
Bacillus subtilis [16] = assay: Bactericidal activity against Bacillus subtilis ATCC 23857 incubated for 18 hrs by broth microdilution method; format: functional
Bacillus subtilis [17] = assay: Antibacterial activity against Bacillus subtilis ATCC 23857 incubated for 18 hrs by broth microdilution method; format: functional
Klebsiella pneumoniae [18] = assay: Antibacterial activity against Klebsiella pneumoniae ATCC 700603 incubated for 18 hrs by broth microdilution method; format: functional
[19] = Self-assembly property of compound in PBS assessed as beta-sheet nanofibers formation incubated for 1 hr by Thioflavin T based fluorescence spectrophotometer analysis; format: physicochemical; conditions: buffer, dose 0.5-1.5 µM
Staphylococcus aureus [20] = assay: Antibacterial activity against methicillin resistant Staphylococcus aureus 75 incubated for 18 hrs by broth microdilution method; format: functional
Staphylococcus aureus [21] = assay: Antibacterial activity against methicillin resistant Staphylococcus aureus incubated for 18 hrs by broth microdilution method; format: functional
Staphylococcus aureus [22] = assay: Antibacterial activity against Staphylococcus aureus incubated for 18 hrs by broth microdilution method; format: functional
Staphylococcus aureus [23] = assay: Antibacterial activity against rifampicin resistant Staphylococcus aureus incubated for 18 hrs by broth microdilution method; format: functional
Staphylococcus aureus [24] = assay: Antibacterial activity against Staphylococcus aureus S125 incubated for 18 hrs by broth microdilution method; format: functional
Escherichia coli [25] = assay: Antibacterial activity against rifampicin resistant Escherichia coli incubated for 18 hrs by broth microdilution method; format: functional
Staphylococcus aureus [26] = assay: Antibacterial activity against methicillin resistant Staphylococcus aureus 113 incubated for 18 hrs by broth microdilution method; format: functional
Escherichia coli [27] = assay: Antibacterial activity against kanamycin resistant Escherichia coli incubated for 18 hrs by broth microdilution method; format: functional
Staphylococcus aureus [28] = assay: Antibacterial activity against Staphylococcus aureus S794 incubated for 18 hrs by broth microdilution method; format: functional
Staphylococcus aureus [29] = assay: Antibacterial activity against kanamycin resistant Staphylococcus aureus incubated for 18 hrs by broth microdilution method; format: functional
Escherichia coli [30] = assay: Antibacterial activity against Escherichia coli incubated for 18 hrs by broth microdilution method; format: functional

| Activity [2] | Retention_time [6] | MIC (Escherichia coli [9]) | Activity [10] | MIC (Staphylococcus aureus [11]) | MIC (Pseudomonas aeruginosa [12]) | MIC [13] | Activity [14] | MIC (Bacillus subtilis [17]) | MIC (Klebsiella pneumoniae [18]) | SMILES | MBC (Staphylococcus aureus [1]) | MHC (Erythrocyte) | MBC (Klebsiella pneumoniae [3]) | Activity (Staphylococcus aureus [4]) | MBC (Pseudomonas aeruginosa [5]) | Activity (Staphylococcus aureus [7]) | MBC [8] | MBC (Escherichia coli [15]) | MBC (Bacillus subtilis [16]) | other results |
| --- | --- | --- | --- | --- | --- | --- | --- | --- | --- | --- | --- | --- | --- | --- | --- | --- | --- | --- | --- | --- |
| 35% | 11.539 min | 8 µM (≈ 13.5 µg/mL) | 30.4% | 16 µM (≈ 27 µg/mL) | 8 µM (≈ 13.5 µg/mL) | 4 µM (≈ 6.74 µg/mL) | 47% | 4 µM (≈ 6.74 µg/mL) | 16 µM (≈ 27 µg/mL) | NCCCC[C@@H](N)C(=O)N[C@H](Cc1c[nH]c2ccccc12)C(=O)N[C@H](CCCCN)C(=O)N[C@H](Cc1c[nH]c2ccccc12)C(=O)N[C@H](CCCCN)C(=O)N1CCC[C@@H]1C(=O)NCC(=O)N[C@H](CCCCN)C(=O)N[C@H](Cc1c[nH]c2ccccc12)C(=O)N[C@H](CCCCN)C(=O)N[C@H](Cc1c[nH]c2ccccc12)C(=O)N[C@H](CCCCN)C(N)=O | 32 µM (≈ 53.9 µg/mL) | > 512 µM | 16 µM (≈ 27 µg/mL) | 100% | 32 µM (≈ 53.9 µg/mL) | 100% | 16 µM (≈ 27 µg/mL) | 8 µM (≈ 13.5 µg/mL) | 8 µM (≈ 13.5 µg/mL) |  |
| 30.5% | 14.321 min | 4 µM (≈ 7.2 µg/mL) | 50% | 4 µM (≈ 7.2 µg/mL) | 4 µM (≈ 7.2 µg/mL) | 4 µM (≈ 7.2 µg/mL) | 44.2% | 2 µM (≈ 3.6 µg/mL) | 8 µM (≈ 14.4 µg/mL) | NCCCC[C@@H](NC(=O)[C@H](N)Cc1c[nH]c2ccccc12)C(=O)N[C@H](Cc1c[nH]c2ccccc12)C(=O)N[C@H](CCCCN)C(=O)N[C@H](Cc1c[nH]c2ccccc12)C(=O)N1CCC[C@@H]1C(=O)NCC(=O)N[C@H](Cc1c[nH]c2ccccc12)C(=O)N[C@H](CCCCN)C(=O)N[C@H](Cc1c[nH]c2ccccc12)C(=O)N[C@H](CCCCN)C(=O)N[C@H](Cc1c[nH]c2ccccc12)C(N)=O | 8 µM (≈ 14.4 µg/mL) | 147.6 µM | 8 µM (≈ 14.4 µg/mL) | 100% | 32 µM (≈ 57.6 µg/mL) | 100% | 8 µM (≈ 14.4 µg/mL) | 4 µM (≈ 7.2 µg/mL) | 2 µM (≈ 3.6 µg/mL) |  |
|  | 14.321 min | 8 µM (≈ 14.1 µg/mL) |  | 4 µM (≈ 7.04 µg/mL) | 4 µM (≈ 7.04 µg/mL) | 4 µM (≈ 7.04 µg/mL) |  | 2 µM (≈ 3.52 µg/mL) | 8 µM (≈ 14.1 µg/mL) | NCCCC[C@@H](NC(=O)[C@H](N)Cc1c[nH]c2ccccc12)C(=O)N[C@H](Cc1c[nH]c2ccccc12)C(=O)N[C@H](CCCCN)C(=O)N[C@H](Cc1c[nH]c2ccccc12)C(=O)NCC(=O)NCC(=O)N[C@H](Cc1c[nH]c2ccccc12)C(=O)N[C@H](CCCCN)C(=O)N[C@H](Cc1c[nH]c2ccccc12)C(=O)N[C@H](CCCCN)C(=O)N[C@H](Cc1c[nH]c2ccccc12)C(N)=O | 4 µM (≈ 7.04 µg/mL) | 66.3 µM | 8 µM (≈ 14.1 µg/mL) | 100% | 32 µM (≈ 56.4 µg/mL) | 100% | 4 µM (≈ 7.04 µg/mL) | 8 µM (≈ 14.1 µg/mL) | 8 µM (≈ 14.1 µg/mL) | Activity [19]: Not Active |
|  | 14.321 min | 4 µM (≈ 7.36 µg/mL) |  | 4 µM (≈ 7.36 µg/mL) | 8 µM (≈ 14.7 µg/mL) | 4 µM (≈ 7.36 µg/mL) |  | 2 µM (≈ 3.68 µg/mL) | 8 µM (≈ 14.7 µg/mL) | NCCCC[C@@H](NC(=O)[C@H](N)Cc1c[nH]c2ccccc12)C(=O)N[C@H](Cc1c[nH]c2ccccc12)C(=O)N[C@H](CCCCN)C(=O)N[C@H](Cc1c[nH]c2ccccc12)C(=O)N1CCC[C@@H]1C(=O)N1CCC[C@H]1C(=O)N[C@H](Cc1c[nH]c2ccccc12)C(=O)N[C@H](CCCCN)C(=O)N[C@H](Cc1c[nH]c2ccccc12)C(=O)N[C@H](CCCCN)C(=O)N[C@H](Cc1c[nH]c2ccccc12)C(N)=O | 8 µM (≈ 14.7 µg/mL) | 243.5 µM | 16 µM (≈ 29.5 µg/mL) | 100% | 32 µM (≈ 58.9 µg/mL) | 100% | 8 µM (≈ 14.7 µg/mL) | 4 µM (≈ 7.36 µg/mL) | 2 µM (≈ 3.68 µg/mL) |  |

| SMILES | Activity [2] | Retention_time [6] | MIC (Escherichia coli [9]) | Activity [10] | MIC (Staphylococcus aureus [11]) | MIC (Pseudomonas aeruginosa [12]) | MIC [13] | Activity [14] | MIC (Bacillus subtilis [17]) | MIC (Klebsiella pneumoniae [18]) | MBC (Staphylococcus aureus [1]) | MHC (Erythrocyte) | MBC (Klebsiella pneumoniae [3]) | Activity (Staphylococcus aureus [4]) | MBC (Pseudomonas aeruginosa [5]) | Activity (Staphylococcus aureus [7]) | MBC [8] | MBC (Escherichia coli [15]) | MBC (Bacillus subtilis [16]) | other results |
| --- | --- | --- | --- | --- | --- | --- | --- | --- | --- | --- | --- | --- | --- | --- | --- | --- | --- | --- | --- | --- |
| NC[C@H]1O[C@H](O[C@H]2[C@H](O)[C@@H](O[C@H]3O[C@H](CO)[C@@H](O)[C@H](N)[C@H]3O)[C@H](N)C[C@@H]2N)[C@H](O)[C@@H](O)[C@@H]1O [KANAMYCIN] |  |  | 8 µM (≈ 3.88 µg/mL) |  | < 1 µM | > 128 µM | > 128 µM |  | < 1 µM | 64 µM (≈ 31 µg/mL) |  |  |  |  |  |  |  |  |  | MIC (Staphylococcus aureus [20]): 256 µM (≈ 124 µg/mL); MIC (Staphylococcus aureus [21]): 256 µM (≈ 124 µg/mL); MIC (Staphylococcus aureus [22]): 0.5 µM (≈ 0.242 µg/mL); MIC (Staphylococcus aureus [23]): 4 µM (≈ 1.94 µg/mL); MIC (Staphylococcus aureus [24]): 256 µM (≈ 124 µg/mL); MIC (Escherichia coli [25]): 4 µM (≈ 1.94 µg/mL); MIC (Staphylococcus aureus [26]): 256 µM (≈ 124 µg/mL); MIC (Escherichia coli [27]): 256 µM (≈ 124 µg/mL); MIC (Staphylococcus aureus [28]): 16 µM (≈ 7.75 µg/mL); MIC (Staphylococcus aureus [29]): 256 µM (≈ 124 µg/mL); MIC (Escherichia coli [30]): 4 µM (≈ 1.94 µg/mL) |
